Source: patent US7193044B1, “Compounds and methods for regulating apoptosis, and methods of making and screening for compounds that regulate apoptosis” (Immunogen, Inc., priority 2000, dated 2007)
Entries after “also recorded” stand apart in the source; their conditions may differ. Non-standard residues stand in square brackets, D forms with d. No end group written: not given here. pS = N[C@@H](COP(=O)(O)O)C(=O)O

How the values were obtained:
[1] = system: Akt; assay: Akt activation in HeLa cells (anti-phospho-S473 Akt western blot); type: cell-based, human; conditions: serum-starved HeLa cells, pretreatment then EGF
Description: FIG. 10(B) is a series of western blots. Serum-starved HeLa cells expressing HA-BAD S155A, were pretreated with a buffer control (lanes 1 and 2), AG1478 (“AG”) (lane 3), Wortmannin (“Wm”) (lane 4), or H89 (lane 5). The cell cultures were then stimulated with a buffer control (lane 1) or EGF (lanes 2–5). Whole cell lysates were made from the cultures and the proteins were separated by SDS-PAGE. Blots were probed with either an anti-activated EGF receptor antibody (“activated EGFR”) (panel A), an anti-phospho-S473 Akt antibody (“pS473 Akt”) (panel B), or an anti-phospho-S155 BAD antibody (“pS155 BAD”) (panel D). Reblots were probed with either an anti-Akt antibody (“Akt”) (panel C) or an anti-HA BAD antibody (“HA-BAD”) (panel E).
(§1) To further test whether phosphorylation of Ser155 is dependent on the PI 3-kinase/Akt pathway, HeLa cells were transfected with the mutant HA-BAD S155A and pretreated with Wortmannin, an inhibitor of PI 3-kinase. These cells were then stimulated with epidermal growth factor (EGF), lysed and analyzed by western blot analysis.

[2] = system: BAD Ser155 phosphorylation in HeLa cells; assay: BAD phosphorylation in HeLa cells (western blot band-shift / anti-phospho-Ser155 antibody); type: cell-based, human; conditions: for induction of band-shift (Ser155 phosphorylation) of HA-BAD S112A/S136A: transfected HeLa cells treated with the agent; for Ser155 phosphorylation following growth factor stimulation: results not shown
Description: A mammalian expression vector encoding mutant HA-BAD S155A, derived from the shorter murine BAD of SEQ ID NO:3, was constructed. HA-BAD S155A has an amino acid sequence wherein the serine at a position corresponding to Ser155 is substituted with alanine. A western blot was performed on WCL prepared from cells expressing the shorter murine BAD (SEQ ID NO:3), HA-BAD S112A, HA-BAD S136A, or HA-BAD S155A, and probed with anti-HA antibody.
A western blot analysis, probed with anti-HA antibody, was performed on lysates produced from the Forskolin treated and untreated (control) cells to determine whether Forskolin could induce the phosphorylation BAD or mutant BAD.
HeLa cells transiently expressing HA-BAD, HA-BAD S155A, HA-BAD S112A/S136A, or HA-BAD S112A/S136A/S155A were treated with Forskolin or a buffer control.
The HA-BAD S112A/S136A double mutant was transiently expressed in HeLa cells, and transfected cell cultures were treated with each of the GPCR ligands, individually and as a group. A western blot analysis, probed with anti-HA antibody, was performed on lysates produced from the treated and untreated (negative control) cells. […] Forskolin (FK) and no treatment (−) were positive and negative controls, respectively (FIG. 6(a), […], respectively).
Non-transfected HeLa cells were treated with Forskolin or L-epinephrine, followed by western blot analysis of cell lysates using anti-BAD antibodies.
Transformants were treated with L-epinephrine, then lysed and subjected to anti-HA western blot analysis.
as §1
For immunoprecipitation of all HA-BAD species, 1 μg of the anti-HA antibody was added to the cell lysates, and incubated at 4° C. for one hour. Protein G agarose (Pierce) was then added (50 μl/fraction of 50% slurry) and followed by a one hour incubation at 4° C. Beads were washed with RIPA buffer, boiled in loading buffer (2% SDS, 10% glycerol, 5% β-ME, 60 mM Tris, pH 6.8, 0.002% Bromophenol Blue) and loaded onto polyacrylamide gels. After electrophoresis, proteins were transferred to nitrocellulose membranes, and blots blocked in western wash buffer (40 mM Tris, pH 8.0, 150 mM NaCl, 0.2% NP-40) with 5% BSA for one hour at room temperature. Blots were incubated with primary antibody diluted in western wash buffer with 3% BSA at room temperature for 1–2 hours, washed with western wash buffer and incubated with secondary HRP-coupled antibody diluted in western wash buffer with 1.5% BSA, and washed extensively. Polypeptides were detected with the ECL chemiluminescence according to the manufacturers instructions (Amersham).

[3] = system: BAD phosphorylation; assay: BAD phosphorylation (test system not specified)
Description: Similarly, inhibitors and activators of protein kinases are known and can be used as therapeutic agents (see, e.g., Levitski, 1994). […] It is preferred that the inhibitors and activators have selective actions on the kinase(s) acting upon the BAD, or fragment of BAD, of the present invention. […] Alternatively, in vivo testing could be done using a number of experimental approaches, and one example, as reported herein, utilizes the endogenous phosphorylation of BAD upon re-addition of IL-3 after withdrawal for two hours. Such standard testing systems could be used to test candidate compounds as inhibitors or activators of BAD phosphorylation.

[4] = molecular target: GST-Bcl-XL (Homo sapiens, UniProt Q07817); assay: In vitro competition binding assay (BH3 peptides blocking GST-Bcl-XL binding to immobilized BAK BH3 peptide, ELISA)
Description: FIG. 3(B) is a graphical representation of the results of an in vitro competition binding assay. Recombinant GST-Bcl-XL was incubated with a BAD BH3 peptide (residues 143–168 of SEQ ID NO: 2) phosphorylated on Ser155 (“BAD BH3-P”), a BAD BH3 peptide (residues 143–168 of SEQ ID NO: 2) unphosphorylated on Ser155 (“BAD BH3”), or a BAK BH3 peptide (residues 71–89; residues 1–20 of SEQ ID NO: 5) as a positive control, at the indicated concentrations. The reaction mixtures were then added to microtiter plates pre-coated with BAK BH3 peptide. The amount of bound GST-Bcl-XL was determined by ELISA using an anti-GST primary antibody and a horse-radish peroxidase-conjugated anti-mouse IgG secondary antibody with ABTS as substrate.
Whether the addition of a phosphate group on BAD Ser155 interferes with this interaction was tested by measuring the affinity of BAD BH3 peptides for Bcl-XL in an in vitro competition binding assay. Synthetic BAD BH3 peptide encompassing BAD residues 143 to 168, was incubated with recombinant GST-Bcl-XL at the indicated concentrations (FIG. 3(b)). The affinity of the BAD BH3 peptide for GST-Bcl-XL was measured as the ability of the peptide to block subsequent binding of GST-Bcl-XL to a BAK BH3 peptide when the reacted mixture was added to a microtiter plate pre-immobilized with a BAK BH3 peptide, as detected by ELISA (triplicate samples, +/−standard deviation). […]

[5] = system: BAD phosphorylation in Rat-1 cells; assay: BAD phosphorylation in Rat-1 cells (western blot band-shift / anti-phospho-Ser155 antibody); type: cell-based; conditions: for induction of band-shift of HA-BAD S112A/S136A: transfected Rat-1 fibroblasts
Description: In the absence of a phospho-Ser155 antibody, it was difficult to conclude that this band-shift was solely the result of the phosphorylation of Ser155. However, it appeared that this response was at least primarily due to the phosphorylation at this site. This was based on the combined evidence, both in vitro and in cells, as described above (FIGS. 1, 2 and 4–7) and the fact that Ser155 is the only site of BAD homologous to the substrate consensus sequence of PKA.
Whether the BAD Ser155 kinase, PKA, is also activated by growth factors, and if so, whether such activation is PI 3-kinase dependent, was investigated. […] Cell lysates were analyzed via western blot analysis, probed using anti-HA antibody. […] However, the magnitude of phosphorylation was weaker and may be more transient, than the effect of Forskolin (FIG. 9(a)). Of note, Ser155 phosphorylation following IGF-1, EGF, or PDGF stimulation was not detected in HeLa cells (results not shown).
It has been documented that Akt kinase activity, the serine kinase shown to phosphorylate BAD Ser136, is induced by growth factors and is dependent on PI 3-kinase activation (Datta et al., 1997; del Peso et al., 1997). In related experiments, Rat-1 cells were pretreated with either the PKA inhibitor H89, or the PI 3-kinase inhibitor Wortmannin (available, e.g., from Sigma, St. Louis, Mo.), followed by stimulation with Forskolin (also available from Sigma) or PDGF. […] This indicated the shift was PKA dependent (FIG. 9(b), lower panel, compare lanes 5 and 6). […] It therefore presumably had no effect on PDGF-induced activation of PI 3-kinase.
To examine whether endogenous BAD is phosphorylated on Ser155 in response to growth factors, serum-starved Rat-1 fibroblasts were stimulated with PDGF. Whole cell lysates were prepared and endogenous BAD was immunoprecipitated. Proteins were separated by SDS-PAGE, and Ser155 phosphorylation was analyzed by Western blot using the phospho-S155 antibody and an anti-BAD antibody.

GST-Bcl-XL, sequence (Q07817 whole entry, the tested form may be a part): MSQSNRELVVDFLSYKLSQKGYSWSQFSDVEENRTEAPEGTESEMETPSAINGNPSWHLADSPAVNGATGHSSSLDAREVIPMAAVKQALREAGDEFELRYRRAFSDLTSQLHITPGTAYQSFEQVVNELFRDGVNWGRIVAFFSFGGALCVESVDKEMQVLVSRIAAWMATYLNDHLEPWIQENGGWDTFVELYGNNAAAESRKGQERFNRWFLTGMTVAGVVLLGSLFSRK

COc1cc2ncnc(Nc3cccc(Cl)c3)c2cc1OC [AG1478, reference compound]
effect on EGF-induced activation/phosphorylation of endogenous Akt [1]: blocked the phosphorylation of both
inhibition of EGF-induced phosphorylation of BAD on Ser155 ([2]; serum-starved HeLa cells transfected with HA-BAD S155A (so in the source), pretreatment then EGF, anti-phospho-S155 blot): blocked the phosphorylation of both

CNC[C@H](O)c1ccc(O)c(O)c1 [L-epinephrine, reference compound]
induction of band-shift of endogenous BAD ([2]; non-transfected HeLa cells): resulted in a new band-shift
induction of band-shift (Ser155 phosphorylation) of HA-BAD S112A/S136A [2]: induced a significant band-shift; also recorded: resulted in the phosphorylation of this site

CCCCCCCCCCCCCC(=O)O[C@@H]1[C@@H](C)[C@@]2(O)[C@@H](C=C(CO)C[C@]3(O)C(=O)C(C)=C[C@@H]23)[C@@H]2C(C)(C)[C@]12OC(C)=O [PMA]
effect on BAD phosphorylation [3]: promotes BAD phosphorylation

CN[C@@H]1C[C@H]2O[C@@](C)([C@@H]1OC)n1c3ccccc3c3c4c(c5c6ccccc6n2c5c31)C(=O)NC4 [staurosporin]
effect on BAD phosphorylation [3]: inhibits BAD phosphorylation

ACTH: adrenocorticotropic hormone, GPCR ligand (SYSMEHFRWGKPVGKKRRPVKVYPNGAEDESAEAFPLEF; Corticotropin; UniProt P01189 138-176, looked up)
induction of band-shift (Ser155 phosphorylation) of HA-BAD S112A/S136A [2]: neither TK (FIG. 6(a), lane 3) nor ACTH (FIG. 6(b), lane 5) alone induces a similar band-shift

BAD BH3-P: Synthetic BAD BH3 peptide, residues 143–168 of SEQ ID NO: 2, phosphorylated on Ser155 (AAQRYGRELRRM[pS]DEFEGSFKGLPRP; listed as Mus musculus)
reduction of affinity for Bcl-XL ([4]; BAD BH3 peptide phosphorylated on Ser155): greater than 100 fold

BAD BH3: Synthetic BAD BH3 peptide, residues 143–168 of SEQ ID NO: 2, unphosphorylated on Ser155 (AAQRYGRELRRMSDEFEGSFKGLPRP; listed as Mus musculus)
affinity of BAD BH3 peptide for Bcl-XL ([4]; ability to block binding of GST-Bcl-XL to plate-bound BAK BH3 peptide, compared with BAK BH3 control peptide): affinity similar to the BAK BH3 control peptide

BAD S112A: mutant of shorter murine BAD, serine corresponding to Ser112 substituted with alanine; HA- or GST-tagged
band-shift (phosphorylation) of expressed BAD construct in response to L-epinephrine ([2]; HeLa cells): significant band-shift

IGF-1: insulin-like growth factor 1
induction of band-shift of HA-BAD S112A/S136A [5]: induced a band-shift
Ser155 phosphorylation following growth factor stimulation ([2]; HeLa cells): not detected

PDGF
induction of phosphorylation of endogenous BAD on Ser155 ([5]; serum-starved Rat-1 fibroblasts, phospho-S155 antibody): induced the phosphorylation of endogenous BAD on Ser155
induction of band-shift of HA-BAD S112A/S136A [5]: induced a band-shift
Ser155 phosphorylation following growth factor stimulation ([2]; HeLa cells): not detected
